Measurements reported in ChEMBL document CHEMBL6127107, “Oleanolic acid derivatives against drug-resistant bacteria and fungi by multi-targets to avoid drug resistance” (Eur J Med Chem, 2024).
Values after ≈ are worked out from the molar mass of the structure shown.

Key:
Format in all cases: functional
Staphylococcus aureus [1] = assay: Antimicrobial activity against Staphylococcus aureus 10
Staphylococcus aureus [2] = assay: Antimicrobial activity against methicillin-resistant Staphylococcus aureus 011
Escherichia coli = assay: Antimicrobial activity against Escherichia coli
Pseudomonas aeruginosa = assay: Antimicrobial activity against Pseudomonas aeruginosa
Staphylococcus aureus [3] = assay: Antimicrobial activity against Staphylococcus aureus 31
Staphylococcus aureus [4] = assay: Antimicrobial activity against Staphylococcus aureus 29
Enterococcus faecalis = assay: Antimicrobial activity against vancomycin resistant Enterococcus faecalis ATCC 51299
Candida albicans = assay: Antimicrobial activity against fluconazole-resistant Candida albicans
Staphylococcus aureus [5] = assay: Antimicrobial activity against methicillin-resistant Staphylococcus aureus 003

Compound | MIC (Staphylococcus aureus [1]) | MIC (Staphylococcus aureus [2]) | MIC (Escherichia coli) | MIC (Pseudomonas aeruginosa) | MIC (Staphylococcus aureus [3]) | MIC (Staphylococcus aureus [4]) | MIC (Enterococcus faecalis) | MIC (Candida albicans) | MIC (Staphylococcus aureus [5])
CC(=O)O[C@H]1CC[C@]2(C)[C@H]3CC=C4[C@@H]5CC(C)(C)CC[C@]5(C(=O)NCc5ccc(F)cc5)CC[C@@]4(C)[C@]3(C)CC[C@H]2C1(C)C | > 64 µg/mL | > 64 µg/mL | > 64 µg/mL | > 64 µg/mL | > 64 µg/mL | > 64 µg/mL | > 64 µg/mL | > 64 µg/mL | > 64 µg/mL
CC1(C)CC[C@]2(C(=O)O[C@@H]3O[C@H](CO)[C@H](O)[C@H](O)[C@H]3O)CC[C@]3(C)C(=CC[C@@H]4[C@@]5(C)CC[C@H](O[C@@H]6O[C@H](C(=O)O)[C@@H](O)[C@H](O)[C@H]6O)C(C)(C)[C@@H]5CC[C@]43C)[C@@H]2C1 | – | – | – | – | – | – | > 512 µg/mL | – | > 512 µg/mL
CCNCC(O)CO[C@H]1CC[C@]2(C)[C@H]3CC=C4[C@@H]5CC(C)(C)CC[C@]5(C(=O)O)CC[C@@]4(C)[C@]3(C)CC[C@H]2C1(C)C (stereo partly drawn) | > 64 µg/mL | > 64 µg/mL | > 64 µg/mL | > 64 µg/mL | > 64 µg/mL | > 64 µg/mL | > 64 µg/mL | > 64 µg/mL | > 64 µg/mL
CC1(C)CC[C@]2(C(=O)O)CC[C@]3(C)C(=CC[C@@H]4[C@@]5(C)CC[C@H](OCC(O)CNCc6ccoc6)C(C)(C)[C@@H]5CC[C@]43C)[C@@H]2C1 (stereo partly drawn) | > 64 µg/mL | > 64 µg/mL | > 64 µg/mL | > 64 µg/mL | > 64 µg/mL | > 64 µg/mL | > 64 µg/mL | > 64 µg/mL | > 64 µg/mL
C[C@H]1[C@H](C)CC[C@]2(C)CC[C@]3(C)C(=CC[C@@H]4[C@@]5(C)CC[C@@H](O)[C@](C)(C(=O)O)[C@@H]5CC[C@]43C)[C@H]12 [BOSWELLIC ACID] | – | – | – | – | – | – | 8 µg/mL (≈ 17.5 µM) | – | 8 µg/mL (≈ 17.5 µM)
C[C@@H]1CC[C@]2(C(=O)O)CC[C@]3(C)C(=CC[C@@H]4[C@@]5(C)CC[C@H](O)[C@@](C)(CO)[C@@H]5CC[C@]43C)[C@@H]2[C@]1(C)O [ROTUNDIC ACID] | – | – | – | – | – | – | 256 µg/mL (≈ 524 µM) | – | 128 µg/mL (≈ 262 µM)
COC(=O)[C@@]1(C)CC[C@]2(C(=O)OC3O[C@H](CO)[C@@H](O)[C@H](O)[C@H]3O)CC[C@]3(C)C(=CC[C@@H]4[C@@]5(C)CC[C@H](O[C@@H]6OC[C@@H](O)[C@H](O)[C@H]6O)[C@@](C)(CO)[C@@H]5CC[C@]43C)[C@@H]2C1 (stereo partly drawn) | – | – | – | – | – | – | > 512 µg/mL | – | > 512 µg/mL
C[C@H]1[C@H](C)CC[C@]2(C(=O)O)CC[C@]3(C)C(=CC[C@@H]4[C@@]5(C)CC[C@H](O)C(C)(C)[C@@H]5CC[C@]43C)[C@H]12 [URSOLIC ACID] | – | – | – | – | – | – | 64 µg/mL (≈ 140 µM) | – | 64 µg/mL (≈ 140 µM)
CCCC(=O)O[C@H]1CC[C@]2(C)[C@H]3CC=C4[C@@H]5CC(C)(C)CC[C@]5(C(=O)O)CC[C@@]4(C)[C@]3(C)CC[C@H]2C1(C)C | > 64 µg/mL | > 64 µg/mL | > 64 µg/mL | > 64 µg/mL | > 64 µg/mL | > 64 µg/mL | > 64 µg/mL | > 64 µg/mL | > 64 µg/mL
CCCOC(=O)[C@]12CCC(C)(C)C[C@H]1C1=CC[C@@H]3[C@@]4(C)CC[C@H](O)C(C)(C)[C@@H]4CC[C@@]3(C)[C@]1(C)CC2 | > 64 µg/mL | > 64 µg/mL | > 64 µg/mL | > 64 µg/mL | > 64 µg/mL | > 64 µg/mL | > 64 µg/mL | > 64 µg/mL | > 64 µg/mL
C[C@H]1[C@H](C)CC[C@]2(C(=O)O)CC[C@]3(C)C(=CC[C@@H]4[C@@]5(C)C[C@@H](O)[C@H](O)C(C)(C)[C@@H]5CC[C@]43C)[C@H]12 [COROSOLIC ACID] | – | – | – | – | – | – | 32 µg/mL (≈ 67.7 µM) | – | 16 µg/mL (≈ 33.8 µM)
CCC(=O)O[C@H]1CC[C@]2(C)[C@H]3CC=C4[C@@H]5CC(C)(C)CC[C@]5(C(=O)O)CC[C@@]4(C)[C@]3(C)CC[C@H]2C1(C)C | > 64 µg/mL | > 64 µg/mL | > 64 µg/mL | > 64 µg/mL | > 64 µg/mL | > 64 µg/mL | > 64 µg/mL | > 64 µg/mL | > 64 µg/mL
CCCCCCCCCCCCCOC(=O)[C@]12CCC(C)(C)C[C@H]1C1=CC[C@@H]3[C@@]4(C)CC[C@H](O)C(C)(C)[C@@H]4CC[C@@]3(C)[C@]1(C)CC2 | > 64 µg/mL | > 64 µg/mL | > 64 µg/mL | > 64 µg/mL | > 64 µg/mL | > 64 µg/mL | > 64 µg/mL | > 64 µg/mL | > 64 µg/mL
CC1(C)CC[C@]2(C(=O)O)CC[C@]3(C)C(=CC[C@@H]4[C@@]5(C)CC[C@H](OCC(O)CN6CCCCC6)C(C)(C)[C@@H]5CC[C@]43C)[C@@H]2C1 (stereo partly drawn) | > 64 µg/mL | > 64 µg/mL | > 64 µg/mL | > 64 µg/mL | > 64 µg/mL | > 64 µg/mL | > 64 µg/mL | > 64 µg/mL | > 64 µg/mL
C[C@H]1[C@H](C)CC[C@]2(C(=O)O)CC[C@]3(C)C(=CC[C@@H]4[C@@]5(C)C[C@@H](O)[C@H](O)[C@@](C)(CO)[C@@H]5CC[C@]43C)[C@H]12 [ASIATIC ACID] | – | – | – | – | – | – | 32 µg/mL (≈ 65.5 µM) | – | 16 µg/mL (≈ 32.7 µM)
CC1(C)CC[C@]2(C(=O)O)CC[C@]3(C)C(=CC[C@@H]4[C@@]5(C)CC[C@H](OC(=O)c6ccccc6)C(C)(C)[C@@H]5CC[C@]43C)[C@@H]2C1 | > 64 µg/mL | > 64 µg/mL | > 64 µg/mL | > 64 µg/mL | > 64 µg/mL | > 64 µg/mL | > 64 µg/mL | > 64 µg/mL | > 64 µg/mL
CC(=O)O[C@H]1CC[C@]2(C)[C@H]3CC=C4[C@@H]5CC(C)(C)CC[C@]5(C(=O)N(C)C)CC[C@@]4(C)[C@]3(C)CC[C@H]2C1(C)C | > 64 µg/mL | > 64 µg/mL | > 64 µg/mL | > 64 µg/mL | > 64 µg/mL | > 64 µg/mL | > 64 µg/mL | > 64 µg/mL | > 64 µg/mL
CC1(C)CC[C@]2(C(=O)O)CC[C@]3(C)C(=CC[C@@H]4[C@@]5(CO)C[C@@H](O)[C@H](O)[C@@](C)(CO)[C@@H]5CC[C@]43C)[C@@H]2C1 | – | – | – | – | – | – | > 512 µg/mL | – | > 512 µg/mL
CC(=O)O[C@H]1CC[C@]2(C)[C@H]3CC=C4[C@@H]5CC(C)(C)CC[C@]5(C(=O)N5CCCCC5)CC[C@@]4(C)[C@]3(C)CC[C@H]2C1(C)C | > 64 µg/mL | > 64 µg/mL | > 64 µg/mL | > 64 µg/mL | > 64 µg/mL | > 64 µg/mL | > 64 µg/mL | > 64 µg/mL | > 64 µg/mL
CCCCCOC(=O)[C@]12CCC(C)(C)C[C@H]1C1=CC[C@@H]3[C@@]4(C)CC[C@H](O)C(C)(C)[C@@H]4CC[C@@]3(C)[C@]1(C)CC2 | > 64 µg/mL | > 64 µg/mL | > 64 µg/mL | > 64 µg/mL | > 64 µg/mL | > 64 µg/mL | > 64 µg/mL | > 64 µg/mL | > 64 µg/mL
C=C1CC[C@]2(C)CC[C@]3(C)[C@H](CC[C@@H]4[C@@]5(C)CC[C@H](OC(C)=O)C(C)(C)[C@@H]5CC[C@]43C)[C@H]2[C@@H]1C [TARAXASTEROL ACETATE] | – | – | – | – | – | – | > 512 µg/mL | – | > 512 µg/mL
C[C@H]1[C@H](C)CC[C@]2(C)CC[C@]3(C)C(=CC(=O)[C@@H]4[C@@]5(C)CC[C@@H](O)[C@](C)(C(=O)O)[C@@H]5CC[C@]43C)[C@H]12 [11-KETO BOSWELLIC ACID] | – | – | – | – | – | – | 32 µg/mL (≈ 68 µM) | – | 16 µg/mL (≈ 34 µM)
C[C@H]1[C@H](C)CC[C@]2(C)CC[C@]3(C)C(=CC[C@@H]4[C@@]5(C)CC[C@H](O)C(C)(C)[C@@H]5CC[C@]43C)[C@H]12 | – | – | – | – | – | – | > 512 µg/mL | – | > 512 µg/mL
CCCCCCCCC(=O)O[C@H]1CC[C@]2(C)[C@H]3CC=C4[C@@H]5CC(C)(C)CC[C@]5(C(=O)O)CC[C@@]4(C)[C@]3(C)CC[C@H]2C1(C)C | > 64 µg/mL | > 64 µg/mL | > 64 µg/mL | > 64 µg/mL | > 64 µg/mL | > 64 µg/mL | > 64 µg/mL | > 64 µg/mL | > 64 µg/mL
CCCCCCCCCOC(=O)[C@]12CCC(C)(C)C[C@H]1C1=CC[C@@H]3[C@@]4(C)CC[C@H](O)C(C)(C)[C@@H]4CC[C@@]3(C)[C@]1(C)CC2 | > 64 µg/mL | > 64 µg/mL | > 64 µg/mL | > 64 µg/mL | > 64 µg/mL | > 64 µg/mL | > 64 µg/mL | > 64 µg/mL | > 64 µg/mL
CC1(C)CC[C@]2(C(=O)O)CC[C@]3(C)C(=CC[C@@H]4[C@@]5(C)CC[C@H](O[C@@H]6O[C@H](C(=O)O)[C@@H](O)[C@H](O[C@@H]7OC[C@@H](O)[C@H](O)[C@H]7O)[C@H]6O)C(C)(C)[C@@H]5CC[C@]43C)[C@@H]2C1 | – | – | – | – | – | – | > 512 µg/mL | – | > 512 µg/mL
C[C@H]1[C@H](C)CC[C@]2(C(=O)O)CC[C@]3(C)C(=CC[C@@H]4[C@@]5(C)CCC(=O)C(C)(C)[C@@H]5CC[C@]43C)[C@H]12 [URSONIC ACID] | – | – | – | – | – | – | 256 µg/mL (≈ 563 µM) | – | 128 µg/mL (≈ 282 µM)
CC1(C)CC[C@]2(C(=O)O)CC[C@]3(C)C(=CC[C@@H]4[C@@]5(C)CCC(=O)C(C)(C)[C@@H]5CC[C@]43C)[C@@H]2C1 [OLEANONIC ACID] | – | – | – | – | – | – | 512 µg/mL (≈ 1130 µM) | – | 256 µg/mL (≈ 563 µM)
CC1(C)C(OC(=O)c2ccccc2)CC[C@]2(C)C3=C([C@@H](O)C[C@@H]12)[C@@]1(C)CC[C@@]2(C)CC[C@@](C)(COC(=O)c4ccccc4)C[C@H]2[C@]1(C)CC3 (stereo partly drawn) | – | – | – | – | – | – | > 512 µg/mL | – | > 512 µg/mL
CC1(C)[C@@H](O[C@@H]2O[C@H](C(=O)O)[C@@H](O)[C@H](O[C@@H]3O[C@H](C(=O)O)[C@@H](O)[C@H](O)[C@H]3O)[C@H]2O)CC[C@]2(C)[C@H]3C(=O)C=C4[C@@H]5C[C@@](C)(C(=O)O)CC[C@]5(C)CC[C@@]4(C)[C@]3(C)CC[C@@H]12 [GLYCYRRHIZINIC ACID] | – | – | – | – | – | – | > 512 µg/mL | – | > 512 µg/mL
